Laboratory results from US9550782B2, “Compounds and methods for treating diabetes” (Medivation Technologies, Inc., priority 2011, dated 2017).
Several values for one entry are separate records, joined by “and”; a condition that tells them apart may be missing. Equal entries are not always repeated.

What was measured:
[1] = biological target: T1, human recombinant adrenergic α2A receptor (Homo sapiens, UniProt P08913); assay: Radioligand binding, adrenergic α2A ([3H]MK-912); settings: [3H]MK-912; for Percentage inhibition of ligand binding, Adrenergic α2A (0.1 μM) / Percentage inhibition of ligand binding, Adrenergic α2A (0.03 μM): repeat datapoints each shown; for Percentage inhibition of ligand binding, Adrenergic α2A (0.03 μM): compound at 0.03 μM
T1 construct: expressed in transfected cells; host or cells: insect Sf9 cells
T1 sequence (P08913 1-465): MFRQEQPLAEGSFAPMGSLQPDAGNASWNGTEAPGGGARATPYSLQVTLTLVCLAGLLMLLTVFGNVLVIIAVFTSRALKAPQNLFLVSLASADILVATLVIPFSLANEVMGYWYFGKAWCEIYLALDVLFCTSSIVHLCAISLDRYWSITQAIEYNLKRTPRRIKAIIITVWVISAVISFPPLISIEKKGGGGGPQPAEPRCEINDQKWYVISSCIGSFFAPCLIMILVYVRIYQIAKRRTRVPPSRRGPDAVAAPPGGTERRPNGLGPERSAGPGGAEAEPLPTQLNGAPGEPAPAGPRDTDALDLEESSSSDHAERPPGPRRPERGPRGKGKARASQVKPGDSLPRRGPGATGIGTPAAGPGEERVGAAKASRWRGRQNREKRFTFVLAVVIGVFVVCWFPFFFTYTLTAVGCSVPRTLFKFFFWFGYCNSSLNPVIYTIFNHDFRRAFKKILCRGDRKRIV
In short: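 Displacement of 1 nM [3H]MK-912 from receptor produced in insect Sf9 cells was measured after 60 min at 25 °C. Readout: percent inhibition of specific binding.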

[2] = biological target: T2, rat adrenergic α1B receptor (Rattus norvegicus, UniProt P15823); assay: Radioligand binding, adrenergic α1B ([3H]Prazosin); design: species or system Wistar Rat; settings: for Percentage inhibition of ligand binding, Adrenergic α1B (0.1 μM) / Percentage inhibition of ligand binding, Adrenergic α1B (0.03 μM): repeat datapoints each shown; for Percentage inhibition of ligand binding, Adrenergic α1B (0.03 μM): compound at 0.03 μM
T2 construct: rat adrenergic α1B receptor obtained from Wistar Rat liver; from tissue; host or cells: Wistar rat liver
T2 sequence (P15823 1-515): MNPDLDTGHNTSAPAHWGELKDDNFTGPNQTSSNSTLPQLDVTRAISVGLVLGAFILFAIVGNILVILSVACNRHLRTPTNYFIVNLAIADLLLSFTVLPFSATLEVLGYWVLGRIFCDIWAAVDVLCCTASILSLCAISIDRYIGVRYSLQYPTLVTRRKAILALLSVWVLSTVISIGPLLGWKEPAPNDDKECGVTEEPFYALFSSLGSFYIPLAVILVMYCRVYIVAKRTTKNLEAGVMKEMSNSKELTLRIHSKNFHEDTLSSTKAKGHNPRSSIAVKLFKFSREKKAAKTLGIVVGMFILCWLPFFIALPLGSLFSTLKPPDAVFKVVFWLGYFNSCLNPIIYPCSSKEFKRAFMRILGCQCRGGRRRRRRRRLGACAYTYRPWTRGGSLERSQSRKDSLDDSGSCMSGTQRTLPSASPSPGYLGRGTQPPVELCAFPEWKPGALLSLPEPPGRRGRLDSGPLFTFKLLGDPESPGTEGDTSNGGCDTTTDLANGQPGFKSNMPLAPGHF
In short: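 Specific binding, taken as total minus that remaining with 10 μM phentolamine, is measured after filtration and counting. Rat liver receptor preparation and 0.25 nM [3H]prazosin are incubated with compound in 50 mM Tris-HCl (pH 7.4, 0.5 mM EDTA) at 25° C for 60 min. Activity is reported as percent inhibition.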

[3] = biological target: T3, human recombinant adrenergic α1D receptor (Homo sapiens, UniProt P25100); assay: Radioligand binding, adrenergic α1D ([3H]Prazosin); settings: compound at 0.1 μM, 0.1 µM
T3 construct: expressed in transfected cells; host or cells: HEK-293
T3 sequence (P25100 1-572): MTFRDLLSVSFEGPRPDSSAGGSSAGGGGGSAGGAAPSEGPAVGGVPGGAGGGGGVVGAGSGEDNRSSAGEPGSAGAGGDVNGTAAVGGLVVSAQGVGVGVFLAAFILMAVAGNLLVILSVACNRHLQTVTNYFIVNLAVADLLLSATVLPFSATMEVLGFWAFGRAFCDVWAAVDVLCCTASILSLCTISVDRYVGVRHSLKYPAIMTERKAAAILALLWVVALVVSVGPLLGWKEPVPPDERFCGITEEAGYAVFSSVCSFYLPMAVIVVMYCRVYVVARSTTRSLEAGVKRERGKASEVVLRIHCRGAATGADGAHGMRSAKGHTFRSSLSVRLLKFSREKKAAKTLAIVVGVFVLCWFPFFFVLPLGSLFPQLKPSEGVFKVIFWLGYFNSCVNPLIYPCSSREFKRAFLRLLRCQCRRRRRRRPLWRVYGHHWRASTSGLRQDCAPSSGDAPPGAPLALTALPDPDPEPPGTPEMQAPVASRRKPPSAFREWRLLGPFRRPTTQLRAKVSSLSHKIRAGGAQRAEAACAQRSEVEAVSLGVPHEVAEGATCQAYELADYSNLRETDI
Description: Compounds were incubated with 0.6 nM [^3H]Prazosin for 60 min at 25° C. Non-specific binding was estimated in the presence of 10 μM phentolamine. Receptor proteins were filtered and washed, the filters were then counted to determine [^3H]Prazosin specifically bound. […] Biochemical assay results are presented as the percent inhibition of specific binding in Table B1.

[4] = biological target: T4, human recombinant adrenergic α2B receptor (Homo sapiens, UniProt P18089); assay: Radioligand binding, adrenergic α2B ([3H]Rauwolscine); settings: for Percentage inhibition of ligand binding, Adrenergic α2B (0.03 μM): compound at 0.03 μM
T4 construct: expressed in transfected cells; host or cells: CHO-K1
T4 sequence (P18089 1-450): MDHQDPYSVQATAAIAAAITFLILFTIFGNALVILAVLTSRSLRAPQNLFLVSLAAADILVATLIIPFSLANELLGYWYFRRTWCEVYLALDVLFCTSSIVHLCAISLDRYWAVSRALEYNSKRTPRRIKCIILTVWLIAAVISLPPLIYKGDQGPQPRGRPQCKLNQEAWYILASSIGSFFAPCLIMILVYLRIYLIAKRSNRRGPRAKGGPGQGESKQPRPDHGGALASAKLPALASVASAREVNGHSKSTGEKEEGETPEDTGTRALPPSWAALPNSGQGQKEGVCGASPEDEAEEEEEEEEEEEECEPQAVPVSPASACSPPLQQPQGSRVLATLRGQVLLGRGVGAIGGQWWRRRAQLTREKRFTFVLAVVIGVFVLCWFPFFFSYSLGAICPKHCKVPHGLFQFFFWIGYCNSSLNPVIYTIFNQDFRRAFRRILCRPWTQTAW
In short: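 Receptor expressed in CHO-K1 cells, assayed in 50 mM Tris-HCl pH 7.4 with 12.5 mM MgCl2, 1 mM EDTA and 0.2% BSA. Compounds were incubated with 2.5 nM [3H]Rauwolscine for 60 min at 25° C; 10 μM Prazosin defined non-specific binding. Filter counting gave percent inhibition of specific binding.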

[5] = repeat datapoints each shown, 0.03 µM

SMILES | Percentage inhibition of ligand binding, Adrenergic α2A (0.1 μM) ([1]; compound at 0.1 μM, 0.1 µM) | Percentage inhibition of ligand binding, Adrenergic α1B (0.1 μM) ([2]; compound at 0.1 μM, 0.1 µM) | Percentage inhibition of ligand binding, Adrenergic α2B (0.03 μM) [4, 5] | also measured
Cc1ccc2c(c1)c1c(n2CC(C)c2ccc(F)cc2)CCN(C)C1 (single isomer, unassigned) [288b] | – | – | – | Percentage inhibition of ligand binding, Adrenergic α2A ([1]; compound at 0.1 μM): 67%; Percentage inhibition of ligand binding, Adrenergic α1B ([2]; compound at 0.1 μM): 39%; Percentage inhibition of ligand binding, Adrenergic α1D [3]: 17%
Cc1ccc2c(c1)c1c(n2CC(C)c2ccc(C)nc2)CCN(C)C1 (single isomer, unassigned) [289a] | – | – | – | Percentage inhibition of ligand binding, Adrenergic α2A ([1]; compound at 0.1 μM, 0.1 µM): 60%; Percentage inhibition of ligand binding, Adrenergic α1B ([2]; compound at 0.1 μM, 0.1 µM): 51%; Percentage inhibition of ligand binding, Adrenergic α1D [3]: 57%
CC(Cn1c2c(c3ccccc31)CN(C)CC2)c1ccc(F)cc1 (single isomer, unassigned) [272b] | – | – | – | Percentage inhibition of ligand binding, Adrenergic α2A ([1]; compound at 0.1 μM, 0.1 µM): 68%; Percentage inhibition of ligand binding, Adrenergic α1B ([2]; compound at 0.1 μM, 0.1 µM): 30%; Percentage inhibition of ligand binding, Adrenergic α1D [3]: 36%
Cc1ccc2c(c1)c1c(n2CC(C)c2ccc(F)cc2)CCN(C)C1 (single isomer, unassigned) [288a] | – | – | – | Percentage inhibition of ligand binding, Adrenergic α2B ([4]; compound at 0.1 μM): 104%; Percentage inhibition of ligand binding, Adrenergic α1D [3]: 88%
CN1CCc2c(c3cc(Cl)ccc3n2CC(C)(O)c2ccc(C(F)(F)F)nc2)C1 (single isomer, unassigned) [143b] | – | – | – | Percentage inhibition of ligand binding, Adrenergic α2A ([1]; 0.1 μM compound): 0%; Percentage inhibition of ligand binding, Adrenergic α1B ([2]; 0.1 μM compound, 0.1 µM): 17%; Percentage inhibition of ligand binding, Adrenergic α2B ([4]; 0.03 μM compound): 49%
Cc1ccc2c(c1)c1c(n2CC(O)c2ccncc2)CC2CCCCN2C1 (racemic) [75a] | 11% | 61% | 77% | –
Cc1cnc2c(c1)c1c(n2CC(C)(O)c2ccc(F)cc2)CCN(C)C1 (single isomer, unassigned) [138b] | – | – | – | Percentage inhibition of ligand binding, Adrenergic α2A ([1]; 0.1 μM compound, 0.1 µM): 4%; Percentage inhibition of ligand binding, Adrenergic α1B ([2]; 0.1 μM compound, 0.1 µM): 22%; Percentage inhibition of ligand binding, Adrenergic α2B ([4]; 0.03 μM compound, 0.03 µM): 25%
CN1CCc2c(c3cc(Cl)ccc3n2CC(O)c2ccncc2)C1 (single isomer, unassigned) [4a] | 19% and 24% | 52% and 57% | 99% and 103% | Percentage inhibition of ligand binding, Adrenergic α2A (0.03 μM) [1]: 5%; Percentage inhibition of ligand binding, Adrenergic α1B (0.03 μM) [2]: 25%; Percentage inhibition of ligand binding, Adrenergic α2B (0.1 μM) ([4]; compound at 0.1 μM, repeat datapoints each shown, 0.1 µM): 104%
CN1CCc2c(c3cc(Cl)ccc3n2CC(C)(O)c2cccnc2)C1 (single isomer, unassigned) [31a] | 19% and 27% | 25% and 28% | 93% and 97% | Percentage inhibition of ligand binding, Adrenergic α2A (0.03 μM) [1]: 11%; Percentage inhibition of ligand binding, Adrenergic α1B (0.03 μM) [2]: 16%
Cc1ccc2c(c1)c1c(n2CC(O)c2ccccn2)CN(C)CC1 (single isomer, unassigned) [22a] | 16% | 19% | 22% | –
Cc1ccc2c(c1)c1c(n2CC(O)c2ccncc2)CCN2CCCCC12 (single isomer, unassigned) [47b] | 41% | 70% | 119% | –
Cc1ccc2c(c1)c1c(n2CC(O)c2ccncc2)CCN2CCCCC12 (single isomer, unassigned) [47a] | 10% | 58% | 40% | –
Cc1ccc2c(c1)c1c(n2CC(N)c2ccncc2)CC2CCC1N2C (stereo not shown) [compound 155] | – | – | – | inhibition at 0.1 µM ([1]; 0.1 μM compound, read-out: Percentage inhibition of ligand binding, Adrenergic α2A): 14%; inhibition at 0.1 µM ([2]; 0.1 μM compound, read-out: Percentage inhibition of ligand binding, Adrenergic α1B): 15%; inhibition at 0.03 µM ([4]; 0.03 μM compound, read-out: Percentage inhibition of ligand binding, Adrenergic α2B): 36%
Cc1cnc2c(c1)c1c(n2CC(C)(O)c2ccc(C)nc2)CCN2CCCC12 (single isomer, unassigned) [148a] | – | – | – | Percentage inhibition of ligand binding, Adrenergic α2A ([1]; 0.1 μM compound, 0.1 µM): −5%; Percentage inhibition of ligand binding, Adrenergic α1B ([2]; 0.1 μM compound, 0.1 µM): 23%; Percentage inhibition of ligand binding, Adrenergic α2B ([4]; 0.03 μM compound, 0.03 µM): 52%
Cc1ccc2c(c1)c1c(n2CC(O)c2ccncc2)CC2CCCN2C1 (single isomer, unassigned) [76d] | 40% | 51% | 91% | –
Cc1ccc2c(c1)c1c(n2CC(O)c2ccncc2)CC2CCCCN2C1 (racemic) [75d] | 49% | 26% | 102% | –
CCC1c2c(c3cc(C)ccc3n2CC(O)c2ccncc2)C2CCN1C2 (single isomer, unassigned) [36a] | 8% | 14% | 33% | –
Cc1ccc2c(c1)c1c(n2CC(O)c2ccccn2)CN(C)CC1 (single isomer, unassigned) [22b] | 0% | 9% | 30% | –
Cc1ccc2c(c1)c1c(n2CC(O)c2cc[n+]([O-])cc2)CCN(C)C1 (single isomer, unassigned) [69a] | 11% | 4% | 10% | –
